# Results: US4174402A, “Method for the prophylaxis of SRS-A-induced symptoms” (priority 1978, dated 1979)
# Like-named read-outs stand apart in the source and are kept apart here.
# Columns and labels:
# [1] = tested on: acetylcholine; assay: Test Procedure 7: acetylcholine-induced bronchoconstriction in anesthetized guinea pigs; format: in vivo, guinea pig; details: 100 mg/kg p.o.
# Experimental: Guinea pigs, weighing 250-350 g were anesthetized with 1.5 g/kg i.p. of urethane and prepared for measurements of resistance to pulmonary inflation using a slightly modified Konzett-Rossler preparation (see Test Procedure 2). Histamine phosphate (5 μg/kg as base) was injected four times at 5 minute intervals in order to ascertain that the maximum bronchoconstrictor responsiveness has been obtained. Acetylcholine was injected intravenously at […] 5 minutes following the last injection of histamine and the increase in intratracheal pressure was recorded. Compound b or aminophylline (100 mg/kg p.o.) or the control vehicle were administered to five guinea pigs each, 1 hour before the injection of acetylcholine (1/2 hour before the anesthesia).
# [2] = tested on: serotonin; assay: Test Procedure 6: serotonin-induced bronchoconstriction in anesthetized guinea pigs; format: in vivo, guinea pig; details: iv 5.0 mg/kg; P 0.01
# Experimental: Guinea pigs, weighing 275-340 g, were anesthetized and prepared for measurements of resistance to pulmonary inflation using a slightly modified Konzett-Rossler method (see Test Procedure 2). All guinea pigs received 0.1 mg/kg of propranolol iv and 5 minutes later, 50 mcg/kg of serotonin (creatinine complex) iv. Compound b or cyproheptadine were administered iv just before the injection of propranolol at 50 or 5 mg/kg, respectively. Compound b was prepared as a 5% solution in 5% N-methylglucamine and cyproheptadine as a 0.25% aqueous solution.
# [3] = tested on: bradykinin
# Experimental: Antagonism of bradykinin-induced bronchoconstriction in guinea pigs was determined by measuring increases in resistance to artificial pulmonary inflation (Konzett-Rossler preparation). […] Due to large variations in bronchoconstricting responses among individual guinea pigs, each guinea pig serves as its own control and was challenged with bradykinin twice. The second response to bradykinin was expressed as percent of the first response to bradykinin. […] All guinea pigs having a first bradykinin response of less than 12 mm Hg were rejected as poor responders. […] In order to augment the bronchoconstrictor response, each guinea pig received 100 mcg propranolol/kg, iv, 5 minutes before the first injection of bradykinin (30 mcg/kg, iv). […] Five minutes after the injection of a test compound the guinea pigs received the second injection of bradykinin and the peak of the response determined. The effects of both test compounds were expressed as % inhibition of bradykinin-induced increase in bronchial resistance to forced inflation, as compared to the levels of bronchial resistance following iv administration of their respective solvent controls.
# [4] = tested on: serotonin; details: guinea pig, in vivo; cited from earlier work
# [5] = tested on: SRS-A; assay: Test Procedure 2: inhibition of SRS-A-induced bronchoconstriction in anesthetized guinea pigs (Konzett-Rossler); format: in vivo, guinea pig; details: for inhibition of SRS-A-induced increases in resistance to inflation: intravenous
# Description: SRS-A was harvested as described in Test Procedure 1 described hereinabove. A slightly modified Konzett-Rossler preparation [Arch. […] Guinea pigs weighing 350 to 450 g were anesthetized ip with 1.5 g/kg urethane. The jugular vein and trachea were cannulated and the guinea pigs were artificially respired at a rate of 40 strokes/minute. […] A side arm of the inflationary air cannula was connected to a pressure transducer and resistance to pulmonary inflation continuously recorded. […] Studies with SRS-A commenced after each guinea pig had attained maximum bronchoconstrictor response to histamine. […] The effects of the test compounds were studied by measuring SRS-A-induced bronchoconstriction side-by-side in two guinea pigs, one medicated and one control. Subsequent medicated/control pairs were alternated on two respiratory pumps. In this manner, the gradual decomposition of SRS-A and differences between the two pump/recorder systems, if any, were controlled. The dose (volume) of each sample of SRS-A was adjusted in each pair to keep the peaks of increases in bronchial resistance in control guinea pigs within 13 to 40 mmHg. Bronchoconstriction following injection of SRS-A was measured two ways; as the peak increase in resistance to inflation and, in view of the occasional irregular bronchoconstriction response curves following injection of SRS-A, as the sum of increases in bronchoconstriction over 10 minutes (pressure/time units). Pressure/time units were calculated by measuring the area under the curve of inflationary resistance where ordinates were set at 10 mm of pen excursion/10 mm pressure Hg and the abscissas were set at 15 mm of paper travel/minute. […] SRS-A-induced bronchoconstriction (increase in resistance) was calculated as the area under the curve and over the normal base line of resistance to inflation. […] The effects of the test compounds upon SRS-A-induced bronchoconstriction were expressed as ratios of the peaks and as ratios of the pressure/time units between the paired medicated and control guinea pigs. The consistency of paired responses to SRS-A in nonmedicated guinea pigs was determined in the same manner, by alternating the ratios of the results of guinea pigs on pumps one and two. […] SRS-A was injected 5 minutes after these latter injections. Compound b was prepared as a solution in 2% N-methylglucamine and used within 3 hours. […] Control guinea pigs received injections of the respective solvent vehicles. In order to compare the activities of compound b following iv and po routes of administration, compound b was also administered orally. […] Control guinea pigs received 2% N-methylglucamine. Fifteen minutes later, the guinea pigs were anesthetized, cannulated, and prepared for injections of SRS-A as described. The procedure was timed so that SRS-A was injected 1 hour after the oral administration of compound b. In a separate experiment, using the same methodology, the duration anti-SRS-A activity of compound b was determined after oral administration. Compound b was finely ground in a tissue homogenizer and prepared as a suspension in 0.5% gum tragacanth. A dose of 10 mg/kg was administered and anti-SRS-A effect studied at 1, 4 and 7 hr postmedication. The ratios of peak increases in intratracheal pressure between paired medicated and control guinea pigs was used to calculate percent inhibition.
# [6] = tested on: SRS-A; details: guinea pigs; cited from earlier work
# [7] = tested on: acetylcholine; details: guinea pig, in vivo; cited from earlier work
# [8] = tested on: bradykinin; details: guinea pigs; cited from earlier work
# [9] = tested on: SRS-A; assay: Test Procedure 3: SRS-A-induced increase in resistance to pulmonary inflation in anesthetized cats; format: in vivo, cat
# Experimental: The trachea of each cat was cannulated, and the cats were artificially respired at 15 strokes/minute with a stroke volume of 22 ml/kg. A side-arm of the intratracheal cannula was connected to a Statham transducer, and the intratracheal pressure was recorded continuously on a polygraph. One femoral vein was cannulated in all cats receiving intravenous administration of drugs. In addition, most of the cats were cannulated through the femoral artery; this cannula was attached to another Statham transducer, and the blood pressure of these cats recorded. All cats received 1.0 mg/kg of propranolol and 0.2 mg/kg of thenyldiamine intravenously 3 minutes before iv injection of SRS-A. SRS-A was obtained from rat peritoneal cavities as described previously in Test Procedure 1. Each pool of rat ip fluid containing SRS-A was dose-ranged and a dose selected that was estimated to cause an average increase in intrapulmonary resistance to inflation in control cats by 4-6 mmHg. Test dose volumes ranged from 1.0 to 2.0 ml/kg, iv. […] Both test compounds and the sodium hydroxide vehicle were injected iv 5 minutes before the injections of SRS-A (2 minutes before the injection of propranolol and thenyldiamine).
# [10] = tested on: SRS-A; assay: Test Procedure 1: antagonism of SRS-A-induced bronchoconstriction in unanesthetized guinea pigs; format: in vivo, guinea pig; details: for ED50: Cavia porcellus, po, read-out: AED50; for ED50 / Potency (Phenylbutazone = 1) (95% confidence limits): 1 hour before SRS-A; for Potency (Phenylbutazone = 1) (95% confidence limits): p.o.
# Experimental: The test compounds were administered orally to four guinea pigs/group 1 hour before the SRS-A challenge. The test compounds were prepared as suspensions in 1% gum tragacanth. Bronchoconstriction was graded 1+ to 3+ according to severity (1+ denoted restlessness and slight thoracic dyspnea, 2+ denoted moderate thoracic dyspnea and 3+ denoted convulsive dyspnea, regardless of whether the guinea pig died of asphyxiation or recovered).
# [11] = tested on: SRS-A; assay: Test Procedure 3: SRS-A-induced increase in resistance to pulmonary inflation in anesthetized cats; format: in vivo, cat; remark: listed apart in the source
smiles,measurement,setting,value
"Cn1c(=O)c2[nH]cnc2n(C)c1=O [Aminophylline, aminophylline, reference compound]",% Inhibition,[1],70%
same,"Peak Increase in Intracheal Pressure, mm Hg",[1],7 ± 1 mm Hg
same,effect against acetylcholine-induced bronchoconstriction,[1],inhibition of acetylcholine responses
"CN1CCC(=C2c3ccccc3C=Cc3ccccc32)CC1 [Cyproheptadine, cyproheptadine, reference compound]",Increase in Resistance (mm Hg),[2],5 ± 1 mm Hg
same,Inhibition %,[2],89%
CCCCC1C(=O)N(c2ccccc2)N(c2ccccc2)C1=O [Na Phenylbutazone],% Inhibition,[3]; iv 1.0 mg/kg,20%
same,Average Increase In Bronchial Resistance (2nd Response in % of 1st Response ± S.E.),[3]; iv 1.0 mg/kg,64 ± 12%
same,% Inhibition,[3]; iv 3.3 mg/kg,50%
same,Average Increase In Bronchial Resistance (2nd Response in % of 1st Response ± S.E.),[3]; iv 3.3 mg/kg,40 ± 9%
same,% Inhibition,[3]; iv 10.0 mg/kg,56%
same,Average Increase In Bronchial Resistance (2nd Response in % of 1st Response ± S.E.),[3]; iv 10.0 mg/kg,35 ± 11%
same,% Inhibition,[3]; iv 33.0 mg/kg,50%
same,Average Increase In Bronchial Resistance (2nd Response in % of 1st Response ± S.E.),[3]; iv 33.0 mg/kg,40 ± 7%
"CCCCC1C(=O)N(c2ccccc2)N(c2ccccc2)C1=O [Phenylbutazone, phenylbutazone, reference compound]",inhibition of bradykinin-induced bronchoconstriction,"[3]; iv 33 mg/kg, remaining five guinea pigs",further dose-related inhibition
same,inhibition of bradykinin-induced increase in bronchial resistance,[3]; iv 3.3 and 10 mg/kg,significantly inhibited
same,effect on serotonin-induced bronchoconstriction,[4],ineffective
same,% Inhibition (peak increase in resistance),[5]; i.v. 1.0 mg/kg,0%
same,% Inhibition (sum of increase in resistance over 10 min),[5]; i.v. 1.0 mg/kg,0%
same,% Inhibition (peak increase in resistance),[5]; i.v. 3.3 mg/kg,59%
same,% Inhibition (sum of increase in resistance over 10 min),[5]; i.v. 3.3 mg/kg,56%
same,% Inhibition (peak increase in resistance),[5]; i.v. 10 mg/kg,72%
same,% Inhibition (sum of increase in resistance over 10 min),[5]; i.v. 10 mg/kg,81%
same,% Inhibition (peak increase in resistance),[5]; i.v. 33 mg/kg,89%
same,% Inhibition (sum of increase in resistance over 10 min),[5]; i.v. 33 mg/kg,90%
same,inhibition of SRS-A-induced increases in resistance to inflation,[5],inhibited SRS-A-induced increases in resistance to inflation in a dose-related manner
same,inhibition of SRS-A-induced increases in resistance to inflation,[5]; 10 and 33 mg/kg,nearly complete inhibition
same,effect on SRS-A-induced bronchoconstriction,[6],inhibit
same,effect on acetylcholine-induced bronchoconstriction,[7],ineffective
same,effect on bradykinin-induced bronchoconstriction,[8],inhibit
same,% Inhibition,[9]; intravenous 10.1 mg/kg,21%
same,"Max. Increase in Resistance to Pulm. Inflation, mm Hg ± S.E.",[9]; intravenous 10.1 mg/kg,4.7 ± 1.5 mm Hg
same,inhibition of SRS-A-induced increase in resistance to inflation,[9]; intravenous 33 mg/kg,complete inhibition
same,% Inhibition,[9]; intravenous 33.0 mg/kg,100%
same,"Incidence of Severe Bronchospasms, %",[10]; 1.6 mg/kg p.o.,62%
same,"Incidence of Severe Bronchospasms, No. Bronchosp./No. Tested",[10]; 1.6 mg/kg p.o.,47/77
same,"Incidence of Severe Bronchospasms, %",[10]; 6.2 mg/kg p.o.,34%
same,"Incidence of Severe Bronchospasms, No. Bronchosp./No. Tested",[10]; 6.2 mg/kg p.o.,29/86
same,"Incidence of Severe Bronchospasms, %",[10]; 25 mg/kg p.o.,15%
same,"Incidence of Severe Bronchospasms, No. Bronchosp./No. Tested",[10]; 25 mg/kg p.o.,21/147
same,"Incidence of Severe Bronchospasms, %",[10]; 100 mg/kg p.o.,4%
same,"Incidence of Severe Bronchospasms, No. Bronchosp./No. Tested",[10]; 100 mg/kg p.o.,2/46
same,ED50,"[11]; Felis catus, 5 min, intravenous, read-out: iv AED50",16 mg/kg
same,"Max. Increase in Resistance to Pulm. Inflation, mm Hg ± S.E.",[11]; intravenous 33.0 mg/kg,0 mm Hg
same,% Inhibition,[11]; oral 10.0 mg/kg,25%
same,"Max. Increase in Resistance to Pulm. Inflation, mm Hg ± S.E.",[11]; oral 10.0 mg/kg,3.0 ± 0.9 mm Hg
same,% Inhibition,[11]; oral 33.0 mg/kg,98%
same,"Max. Increase in Resistance to Pulm. Inflation, mm Hg ± S.E.",[11]; oral 33.0 mg/kg,0.1 ± 0.1 mm Hg
"O=C(O)C1CCc2c(c3ccccc3n2C(=O)c2ccccc2)C1 (stereo not shown) [a, 9-benzoyl-1,2,3,4-tetrahydrocarbazole-3-carboxylic acid]",ED50,[10],10 mg/kg
same,Potency (Phenylbutazone = 1) (95% confidence limits),[10],1.1 (0.53.8)
CC(=O)Oc1ccccc1C(=O)O [aspirin],effect on serotonin-induced bronchoconstriction,[4],ineffective
same,effect on SRS-A-induced bronchoconstriction,[6],inhibit
same,effect on acetylcholine-induced bronchoconstriction,[7],ineffective
same,effect on bradykinin-induced bronchoconstriction,[8],inhibit
"O=C(O)C1CCCc2c1c1ccccc1n2C(=O)c1ccccc1 (stereo not shown) [c, 9-benzoyl-1,2,3,4-tetrahydrocarbazole-4-carboxylic acid]",ED50,[10],0.3 mg/kg
same,Potency (Phenylbutazone = 1) (95% confidence limits),[10],16 (6.9-37)
"Cc1ccc(C(=O)n2c3c(c4ccccc42)C(C(=O)O)CCC3)cc1 (stereo not shown) [d, 9-(4-toluoyl)-1,2,3,4-tetrahydrocarbazole-4-carboxylic acid]",ED50,[10],5 mg/kg
same,Potency (Phenylbutazone = 1) (95% confidence limits),[10],1.7 (0.6-6.8)
"COc1ccc2c(c1)c1c(n2C(=O)c2ccccc2)CCCC1C(=O)O (stereo not shown) [e, 9-benzoyl-6-methoxy-1,2,3,4-tetrahydrocarbazole-4-carboxylic acid]",ED50,[10],1 mg/kg
same,Potency (Phenylbutazone = 1) (95% confidence limits),[10],18 (5.0-86)
"Cc1ccc2c(c1)c1c(n2C(=O)c2ccccc2)CCCC1C(=O)O (stereo not shown) [f, 9-benzoyl-6-methyl-1,2,3,4-tetrahydrocarbazole-4-carboxylic acid]",ED50,[10],1.7 mg/kg
same,Potency (Phenylbutazone = 1) (95% confidence limits),[10],6.7 (3.2-16)
